Assay results reported in PMC10887214 (Biomedicines, 2024).

Legend:
CB1 receptor (hCB1) = molecular target: T1, CB1 receptor (hCB1) (Homo sapiens, UniProt P21554); assay: Two-electrode voltage-clamp, CB1-GIRK1/GIRK2-RGS4 coupling system expressed in Xenopus oocytes; format: cell-based
T1 construct: expressed in transfected cells; host or cells: Xenopus laevis oocytes (cRNA injection)

C57BL/6J mice [1] = assay: Morris Water Maze (MWM); format: in vivo, mouse; settings: i.p., OS 2 mg/kg
Method: (§1) Animal housing. Forty-eight Male C57BL/6J mice were purchased from Janvier Labs (Le Genest-Saint-Isle, France) and were time-specifically housed in a 12 h light-dark cycle (lights on at 7 am), with ad libitum water and food in conditioned rooms (22 °C, humidity ~60%).
(§2) Behavior assays. All mice were subjected to a behavioral test battery that consisted of several general performance tasks of locomotor activity, exploratory and anxiety-like behavior, and learning and memory. Mice were divided into four groups: Vehicle, OS (2 mg/kg), WIN55 (0.5 mg/kg), or OS + WIN. Each group consisted of 7–14 mice that received two i.p injections before each test, with a 10 min interval between each injection. Veh + Veh were injected with PBS. Veh + WIN were injected with PBS and WIN55. Veh + OS were injected with PBS and OS. OS + WIN were injected with OS and WIN55. PBS was used as vehicle as it was used for dilution of drugs. Tests were performed in the order described below after 10 min of the last injection, with a 24 h interval between each test.
Morris Water Maze (MWM): MWM [32] was used to assess the effects of OS, WIN, and OS + WIN in memory one day after the EPM test. MWM is a gold standard test to assess learning and memory consisting of 10 days of training and two probe trials in a pool with water at a temperature of 26 °C, with one submersed platform invisible to mice. Each mouse could try to find the platform for 100 s, four times per day, with an inter-trial interval of 15–30 min. In each trial, animals were released randomly from each of the four starting positions. This protocol of training was repeated for ten days (training sessions). The platform was removed on the 6th and 11th days, and the animals were left free to swim for 100 s (probe trials). Right after the first probe trial (day 6), animals were trained again with the platform at the same place. During the training sessions, the mean latency to find the platform for the session was calculated for each animal as the average of the four trials of the day. During the probe trials, the pool was divided into four equal virtual quadrants, and the time spent in the target quadrant (TQ) (i.e., the quadrant where the platform was located during the training sessions) was assessed as a measure of memory retention. For this test, we used Veh (n = 9), OS (n = 8), WIN (n = 8), OS + WIN (n = 14).

hERG = hERG (Homo sapiens, UniProt Q12809)
Description: (§3) Electrophysiological measurements.
(§4) (A), (B), (C), and (D) represent that
(§5) currents through the channels.
(§6) in oocytes, as described before (6-8).

NaV1.5 = NaV1.5 (Homo sapiens, UniProt Q14524)
Description: as §3, §4, §5, §6

CaV3.1 = CaV3.1 (Homo sapiens, UniProt O43497)
Description: as §3, §4, §5, §6

KV1.5 = KV1.5 (Homo sapiens, UniProt P22460)
Description: as §3, §4, §5, §6

CB2 receptor (hCB2) = molecular target: T2, CB2 receptor (hCB2) (Homo sapiens, UniProt P34972); assay: Two-electrode voltage-clamp, CB2-GIRK1/GIRK2-RGS4 coupling system expressed in Xenopus oocytes; format: cell-based
T2 construct: expressed in transfected cells; host or cells: Xenopus laevis oocytes (cRNA injection)

C57BL/6J mice [2] = assay: Elevated Plus Maze (EPM); format: in vivo, mouse; settings: i.p., OS 2 mg/kg, WIN 0.5 mg/kg
Method: as §1
as §2, with “Tests were performed in the order described below after 10 min of the last injection, with a 24 h interval between each test.” left out
Elevated Plus Maze (EPM): EPM was used to assess the effects of OS, WIN, and OS + WIN on anxiety-like behavior. […] Time in open and closed arms was measured over 10 min. Anxiety index (AI) was calculated using the following equation: AI = 1 − [([time the animal remained in the open arms (seconds)/test duration] + [input frequency in the open arms/total number of entries])/2]. […]

H4R = H4R (Homo sapiens, UniProt Q9H3N8)
C57BL/6J mice [3] = assay: Home cage activity test; format: in vivo, mouse; settings: i.p., OS 2 mg/kg
Method: as §1, §2
Cage activity assessment: At P60, animals were moved to the cage activity room for one hour before injections for habituation.. The cage activity assessment consists of placing the mice in a transparent box which is placed between three infrared sensors (two on the cage’s side and one in its front) that count how many times the mice cross the infrared beams. The times of beams crossed in each 30 min were counted over a period of 24 h and used as a locomotor activity measurement. In addition, we also compared the total number of beams crossed during the day and night period. For this test, we used Veh (n = 10), OS (n = 9), WIN (n = 11), OS + WIN (n = 8).

α7-nAChR = α7-nAChR (Homo sapiens, UniProt P36544)
KV7.1 = KV7.1 (Homo sapiens, UniProt P51787)
[4] = 100 μM OS co-applied with 0.3 μM WIN55,212-2

T2 sequence (P34972 whole entry): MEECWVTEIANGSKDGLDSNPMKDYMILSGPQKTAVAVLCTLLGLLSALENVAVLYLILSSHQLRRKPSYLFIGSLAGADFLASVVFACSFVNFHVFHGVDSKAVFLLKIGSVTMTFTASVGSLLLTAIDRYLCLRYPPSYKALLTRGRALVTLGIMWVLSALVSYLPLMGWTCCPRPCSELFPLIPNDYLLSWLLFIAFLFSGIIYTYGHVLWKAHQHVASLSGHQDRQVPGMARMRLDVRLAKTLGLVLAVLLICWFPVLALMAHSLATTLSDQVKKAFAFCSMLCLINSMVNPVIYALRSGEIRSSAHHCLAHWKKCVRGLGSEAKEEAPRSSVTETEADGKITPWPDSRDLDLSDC
T1 sequence (P21554 whole entry): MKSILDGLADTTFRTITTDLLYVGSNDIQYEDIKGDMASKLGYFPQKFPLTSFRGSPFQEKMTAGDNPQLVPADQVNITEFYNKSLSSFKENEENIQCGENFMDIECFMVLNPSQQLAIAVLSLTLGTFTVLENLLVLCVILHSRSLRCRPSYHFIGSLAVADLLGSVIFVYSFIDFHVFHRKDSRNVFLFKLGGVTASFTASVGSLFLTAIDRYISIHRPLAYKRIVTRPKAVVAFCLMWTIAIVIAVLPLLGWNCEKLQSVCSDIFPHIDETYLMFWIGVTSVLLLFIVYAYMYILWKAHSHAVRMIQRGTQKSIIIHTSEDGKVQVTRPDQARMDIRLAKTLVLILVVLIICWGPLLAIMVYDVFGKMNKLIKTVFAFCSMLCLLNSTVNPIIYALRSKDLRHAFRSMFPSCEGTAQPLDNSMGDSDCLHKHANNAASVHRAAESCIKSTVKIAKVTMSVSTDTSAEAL
Sequence of hERG (Q12809 whole entry): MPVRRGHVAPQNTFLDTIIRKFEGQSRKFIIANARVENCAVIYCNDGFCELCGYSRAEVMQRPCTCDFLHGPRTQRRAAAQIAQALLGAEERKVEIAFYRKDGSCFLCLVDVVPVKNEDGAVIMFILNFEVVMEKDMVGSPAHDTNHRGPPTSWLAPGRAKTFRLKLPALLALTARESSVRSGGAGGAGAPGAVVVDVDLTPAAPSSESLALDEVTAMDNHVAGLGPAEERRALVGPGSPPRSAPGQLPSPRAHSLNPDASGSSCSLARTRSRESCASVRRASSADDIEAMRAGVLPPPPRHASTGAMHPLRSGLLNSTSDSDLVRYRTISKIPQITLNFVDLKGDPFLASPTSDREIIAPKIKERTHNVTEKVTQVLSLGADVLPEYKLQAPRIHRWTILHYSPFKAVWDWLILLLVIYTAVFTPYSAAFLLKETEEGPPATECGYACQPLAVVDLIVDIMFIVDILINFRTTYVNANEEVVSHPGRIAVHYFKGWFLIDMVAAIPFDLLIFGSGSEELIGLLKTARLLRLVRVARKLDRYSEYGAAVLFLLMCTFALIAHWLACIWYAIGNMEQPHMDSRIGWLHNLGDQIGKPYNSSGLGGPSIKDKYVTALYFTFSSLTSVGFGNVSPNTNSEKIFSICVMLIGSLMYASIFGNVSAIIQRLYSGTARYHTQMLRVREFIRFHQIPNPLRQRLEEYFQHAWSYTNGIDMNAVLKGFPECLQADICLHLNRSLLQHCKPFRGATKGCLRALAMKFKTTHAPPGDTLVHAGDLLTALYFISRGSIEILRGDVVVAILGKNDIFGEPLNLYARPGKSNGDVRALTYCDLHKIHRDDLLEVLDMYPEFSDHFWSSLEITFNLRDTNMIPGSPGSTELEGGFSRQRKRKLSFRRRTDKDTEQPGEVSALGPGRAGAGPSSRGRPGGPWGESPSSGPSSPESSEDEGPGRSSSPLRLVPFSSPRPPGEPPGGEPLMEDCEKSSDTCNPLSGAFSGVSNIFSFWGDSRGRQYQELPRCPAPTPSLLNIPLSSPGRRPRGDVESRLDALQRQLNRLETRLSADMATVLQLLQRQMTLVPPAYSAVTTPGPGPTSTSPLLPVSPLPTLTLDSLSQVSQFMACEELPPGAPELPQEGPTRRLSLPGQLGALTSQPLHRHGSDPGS
Sequence of KV1.5 (P22460 whole entry): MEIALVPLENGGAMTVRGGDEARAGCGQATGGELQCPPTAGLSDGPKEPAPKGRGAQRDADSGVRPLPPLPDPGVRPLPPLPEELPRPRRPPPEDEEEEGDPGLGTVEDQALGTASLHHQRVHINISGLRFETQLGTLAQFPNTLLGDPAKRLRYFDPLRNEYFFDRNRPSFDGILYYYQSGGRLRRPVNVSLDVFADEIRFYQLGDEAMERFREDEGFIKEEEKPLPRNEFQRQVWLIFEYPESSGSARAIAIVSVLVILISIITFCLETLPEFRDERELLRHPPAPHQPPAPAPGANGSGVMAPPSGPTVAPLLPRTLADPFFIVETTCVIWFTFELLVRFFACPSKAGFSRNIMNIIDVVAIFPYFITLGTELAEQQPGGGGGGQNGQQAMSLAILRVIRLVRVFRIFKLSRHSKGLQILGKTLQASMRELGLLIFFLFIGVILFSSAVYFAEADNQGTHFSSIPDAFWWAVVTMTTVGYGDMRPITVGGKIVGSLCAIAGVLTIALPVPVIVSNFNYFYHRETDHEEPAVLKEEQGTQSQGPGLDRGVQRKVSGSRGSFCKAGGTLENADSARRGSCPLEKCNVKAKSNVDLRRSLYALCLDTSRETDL
Sequence of α7-nAChR (P36544 23-502): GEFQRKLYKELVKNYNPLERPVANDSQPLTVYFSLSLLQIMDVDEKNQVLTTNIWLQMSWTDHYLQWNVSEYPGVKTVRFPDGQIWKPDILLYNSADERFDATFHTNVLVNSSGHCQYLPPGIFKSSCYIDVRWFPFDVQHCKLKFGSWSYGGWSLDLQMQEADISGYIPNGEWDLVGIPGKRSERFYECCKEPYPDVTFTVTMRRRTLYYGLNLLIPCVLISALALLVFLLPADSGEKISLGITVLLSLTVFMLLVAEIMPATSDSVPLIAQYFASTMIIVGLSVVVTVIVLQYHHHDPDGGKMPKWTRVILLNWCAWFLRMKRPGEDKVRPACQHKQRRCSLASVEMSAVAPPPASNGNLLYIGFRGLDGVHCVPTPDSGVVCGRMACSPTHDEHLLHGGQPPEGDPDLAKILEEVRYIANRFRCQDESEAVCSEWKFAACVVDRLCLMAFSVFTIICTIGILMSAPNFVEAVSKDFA
Sequence of NaV1.5 (Q14524 whole entry): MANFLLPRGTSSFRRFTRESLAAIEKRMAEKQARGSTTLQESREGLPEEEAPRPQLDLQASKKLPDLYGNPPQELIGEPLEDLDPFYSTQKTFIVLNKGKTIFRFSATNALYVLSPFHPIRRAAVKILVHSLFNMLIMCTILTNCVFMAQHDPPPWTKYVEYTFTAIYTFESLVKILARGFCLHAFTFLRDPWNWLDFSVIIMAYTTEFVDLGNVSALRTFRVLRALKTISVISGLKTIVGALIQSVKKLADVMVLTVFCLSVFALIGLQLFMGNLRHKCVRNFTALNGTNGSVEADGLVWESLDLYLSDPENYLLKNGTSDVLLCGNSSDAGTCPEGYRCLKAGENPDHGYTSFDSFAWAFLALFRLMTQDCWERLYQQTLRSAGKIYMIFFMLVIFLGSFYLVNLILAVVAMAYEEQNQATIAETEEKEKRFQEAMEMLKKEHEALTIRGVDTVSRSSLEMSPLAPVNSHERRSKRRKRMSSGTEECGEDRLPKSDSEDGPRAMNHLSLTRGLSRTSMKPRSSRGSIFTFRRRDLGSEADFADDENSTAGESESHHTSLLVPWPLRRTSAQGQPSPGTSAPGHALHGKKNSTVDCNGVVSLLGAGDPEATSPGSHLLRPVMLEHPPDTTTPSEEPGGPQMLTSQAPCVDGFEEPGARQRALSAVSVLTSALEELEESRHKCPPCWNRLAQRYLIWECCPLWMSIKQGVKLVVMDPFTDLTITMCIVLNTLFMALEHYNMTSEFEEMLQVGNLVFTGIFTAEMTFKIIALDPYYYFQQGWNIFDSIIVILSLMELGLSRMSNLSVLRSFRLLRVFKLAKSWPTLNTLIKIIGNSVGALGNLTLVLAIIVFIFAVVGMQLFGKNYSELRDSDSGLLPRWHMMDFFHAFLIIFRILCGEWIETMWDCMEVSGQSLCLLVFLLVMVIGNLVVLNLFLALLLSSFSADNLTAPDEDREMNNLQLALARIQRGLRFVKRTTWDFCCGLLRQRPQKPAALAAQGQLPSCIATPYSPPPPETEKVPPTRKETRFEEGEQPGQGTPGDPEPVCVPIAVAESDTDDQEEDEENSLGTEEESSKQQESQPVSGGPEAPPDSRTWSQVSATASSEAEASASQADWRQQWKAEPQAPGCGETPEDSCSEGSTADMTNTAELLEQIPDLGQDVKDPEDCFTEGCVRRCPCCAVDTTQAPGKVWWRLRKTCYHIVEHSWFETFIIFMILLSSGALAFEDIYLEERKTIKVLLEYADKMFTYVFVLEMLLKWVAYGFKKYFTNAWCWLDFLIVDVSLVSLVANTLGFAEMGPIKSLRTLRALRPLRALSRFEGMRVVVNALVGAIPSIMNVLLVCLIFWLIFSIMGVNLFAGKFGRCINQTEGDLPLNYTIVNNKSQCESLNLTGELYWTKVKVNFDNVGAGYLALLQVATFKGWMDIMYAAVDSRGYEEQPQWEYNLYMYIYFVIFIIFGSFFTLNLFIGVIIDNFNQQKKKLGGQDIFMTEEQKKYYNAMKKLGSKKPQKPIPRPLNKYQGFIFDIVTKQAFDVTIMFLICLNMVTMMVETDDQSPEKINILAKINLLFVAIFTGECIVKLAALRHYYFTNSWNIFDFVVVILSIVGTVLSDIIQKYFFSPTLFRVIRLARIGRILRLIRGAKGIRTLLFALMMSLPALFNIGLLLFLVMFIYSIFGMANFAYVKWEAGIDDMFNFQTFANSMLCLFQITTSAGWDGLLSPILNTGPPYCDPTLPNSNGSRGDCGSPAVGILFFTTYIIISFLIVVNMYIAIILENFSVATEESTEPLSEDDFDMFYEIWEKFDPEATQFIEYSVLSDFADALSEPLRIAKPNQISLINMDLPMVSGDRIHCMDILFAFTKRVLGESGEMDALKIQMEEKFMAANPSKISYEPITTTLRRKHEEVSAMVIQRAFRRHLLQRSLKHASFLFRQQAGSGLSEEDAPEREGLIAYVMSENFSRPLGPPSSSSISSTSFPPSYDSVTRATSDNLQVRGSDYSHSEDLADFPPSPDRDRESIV

Compound: CCCCCCCC/C=C\CCCCCCCC(=O)NCCc1c[nH]c2ccc(O)cc12 [OS, oleoyl serotonin]
- Effect on WIN55,212-2-induced inward K+ currents (IK,WIN+OS) (CB1 receptor (hCB1); [4]): inhibited
- Effect of OS alone on IK,basal (CB1 receptor (hCB1); 100 μM OS, 20–30 s, in HK): did not change the response of IK,basal
- IC50 (CB1 receptor (hCB1); IC50 of blocking CB1 receptor activated by WIN55,212-2, 0.03 μM WIN + OS): 2.4 µM
- IC50 (CB1 receptor (hCB1); IC50 of blocking CB1 receptor activated by WIN55,212-2, 0.1 μM WIN + OS): 6.5 µM
- IC50 (CB1 receptor (hCB1); IC50 of blocking CB1 receptor activated by WIN55,212-2, 0.3 μM WIN + OS): 16.2 µM
- IC50 (CB1 receptor (hCB1); IC50 of blocking CB1 receptor activated by WIN55,212-2, 1 μM WIN + OS): 34.1 µM
- Mode of antagonism (CB1 receptor (hCB1); against WIN55,212-2): competitively blocked
- Time spent in the target quadrant (TQ), first probe trial (C57BL/6J mice [1]; 100 s trial): more than 25 s
- Performance in first probe trial vs control (time in target quadrant) (C57BL/6J mice [1]; day 6): performed worse than the control
- Activity in selectivity screening (hERG): did not show significant activity
- Activity in selectivity screening (NaV1.5): did not show significant activity
- Activity in selectivity screening (CaV3.1): did not show significant activity
- Activity in selectivity screening (KV1.5): did not show significant activity
- Effect on WIN55,212-2-induced inward K+ currents (IK,WIN+OS) (CB2 receptor (hCB2); [4]): inhibited
- Effect of OS alone on IK,basal (CB2 receptor (hCB2); 100 μM OS, 20–30 s, in HK): did not change the response of IK,basal
- IC50 (CB2 receptor (hCB2); IC50 of blocking CB2 receptor activated by WIN55,212-2, 0.03 μM WIN + OS): 14.8 µM
- IC50 (CB2 receptor (hCB2); IC50 of blocking CB2 receptor activated by WIN55,212-2, 0.1 μM WIN + OS): 13.2 µM
- IC50 (CB2 receptor (hCB2); IC50 of blocking CB2 receptor activated by WIN55,212-2, 0.3 μM WIN + OS): 12.1 µM
- IC50 (CB2 receptor (hCB2); IC50 of blocking CB2 receptor activated by WIN55,212-2, 1 μM WIN + OS): 10.4 µM
- Mode of antagonism (CB2 receptor (hCB2); against WIN55,212-2): non-competitively blocked
- Anxiety-like behavior (time in open and closed arms, anxiety index) (C57BL/6J mice [2]): did not exhibit significant effects
- Activity in selectivity screening (H4R): did not show significant activity
- Overall locomotion during the night in home cage vs control (C57BL/6J mice [3]): moved more in the cage compared to the control group
- Cage activity (beam crossings) 2 h after the beginning of night phase (C57BL/6J mice [3]; WIN 0.5 mg/kg, 21 h): notably increased cage activity
- Activity in selectivity screening (α7-nAChR): did not show significant activity
- Activity in selectivity screening (KV7.1): did not show significant activity
